Test results: the kinase profiling compilation of Christmann-Franck et al. (2016)

Experiments:
Assay in all cases: radiometric filter-binding kinase assay
[1] = test system: PAK2 (human), Q13177 [T402E]
EPHA2 (human) = EPHA2 (human) (UniProt P29317)
MAPK13 (human) = MAPK13 (human) (UniProt O15264)
TBK1 (human) = TBK1 (human) (UniProt Q9UHD2)
NEK6 (human) = NEK6 (human) (UniProt Q9HC98)
MAPK11 (human) = MAPK11 (human) (UniProt Q15759)
NEK2 (human) = NEK2 (human) (UniProt P51955)
GSK3B (human) = GSK3B (human) (UniProt P49841)
ROCK2 (rat) = conditions: accession and sequence are those of the human protein
CSNK2A1 (human) = CSNK2A1 (human) (UniProt P68400)
Chain of CSNK2A1 (human) (P68400 whole entry, looked up): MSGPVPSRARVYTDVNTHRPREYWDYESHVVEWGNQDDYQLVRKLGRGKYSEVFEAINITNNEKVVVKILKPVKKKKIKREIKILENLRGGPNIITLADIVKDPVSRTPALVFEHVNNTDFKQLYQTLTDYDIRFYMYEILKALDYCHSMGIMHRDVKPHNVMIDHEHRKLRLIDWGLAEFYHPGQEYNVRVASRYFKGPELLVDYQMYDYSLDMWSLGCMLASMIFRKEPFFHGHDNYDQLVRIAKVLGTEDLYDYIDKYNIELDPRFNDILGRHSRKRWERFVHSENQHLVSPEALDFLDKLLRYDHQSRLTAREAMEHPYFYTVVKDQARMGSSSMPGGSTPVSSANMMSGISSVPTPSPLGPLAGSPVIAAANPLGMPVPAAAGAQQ

PHKG1 (human) = PHKG1 (human) (UniProt Q16816)
[2] = test system: AKT2 (human), P31751 [S474D]
MAP3K9 (human) = MAP3K9 (human) (UniProt P80192)
MAP2K1 (human) = MAP2K1 (human) (UniProt Q02750)
Chain of MAP2K1 (human) (Q02750 whole entry, looked up): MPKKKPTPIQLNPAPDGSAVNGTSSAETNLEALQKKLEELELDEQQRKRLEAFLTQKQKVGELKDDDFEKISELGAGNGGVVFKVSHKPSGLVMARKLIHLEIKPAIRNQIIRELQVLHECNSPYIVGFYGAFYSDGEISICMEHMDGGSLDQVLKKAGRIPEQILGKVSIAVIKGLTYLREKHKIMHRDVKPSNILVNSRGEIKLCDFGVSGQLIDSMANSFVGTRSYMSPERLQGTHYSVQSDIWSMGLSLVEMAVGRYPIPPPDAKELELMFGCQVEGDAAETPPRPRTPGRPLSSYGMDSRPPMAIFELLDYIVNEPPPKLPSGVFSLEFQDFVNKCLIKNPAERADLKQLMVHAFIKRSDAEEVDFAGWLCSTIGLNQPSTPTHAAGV

PKN2 (human) = PKN2 (human) (UniProt Q16513)
Chain of PKN2 (human) (Q16513 whole entry, looked up): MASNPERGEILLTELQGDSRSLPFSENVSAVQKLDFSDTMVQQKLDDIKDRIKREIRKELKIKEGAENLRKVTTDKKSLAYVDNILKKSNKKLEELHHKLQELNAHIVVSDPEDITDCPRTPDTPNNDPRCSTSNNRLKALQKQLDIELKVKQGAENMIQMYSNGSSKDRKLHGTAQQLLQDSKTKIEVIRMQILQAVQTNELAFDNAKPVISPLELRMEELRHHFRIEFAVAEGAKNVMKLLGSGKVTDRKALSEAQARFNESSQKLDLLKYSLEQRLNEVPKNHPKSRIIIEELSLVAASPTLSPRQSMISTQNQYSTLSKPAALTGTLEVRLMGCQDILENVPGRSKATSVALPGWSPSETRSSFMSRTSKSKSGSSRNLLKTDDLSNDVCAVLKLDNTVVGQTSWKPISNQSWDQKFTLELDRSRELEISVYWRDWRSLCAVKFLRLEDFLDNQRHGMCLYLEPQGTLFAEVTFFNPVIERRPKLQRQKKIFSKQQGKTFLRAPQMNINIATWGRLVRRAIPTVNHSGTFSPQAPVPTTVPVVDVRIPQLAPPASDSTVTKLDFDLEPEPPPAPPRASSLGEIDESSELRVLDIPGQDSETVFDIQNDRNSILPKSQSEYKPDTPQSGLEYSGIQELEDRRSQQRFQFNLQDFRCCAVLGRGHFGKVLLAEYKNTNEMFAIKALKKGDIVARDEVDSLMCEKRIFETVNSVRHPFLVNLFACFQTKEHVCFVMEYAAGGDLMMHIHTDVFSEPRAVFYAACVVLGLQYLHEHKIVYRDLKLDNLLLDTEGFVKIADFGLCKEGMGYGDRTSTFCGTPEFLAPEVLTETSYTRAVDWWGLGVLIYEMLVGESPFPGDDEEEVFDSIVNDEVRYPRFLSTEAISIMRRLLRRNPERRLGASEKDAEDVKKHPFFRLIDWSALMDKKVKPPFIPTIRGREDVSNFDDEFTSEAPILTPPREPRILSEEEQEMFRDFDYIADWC

SRPK1 (human) = SRPK1 (human) (UniProt Q96SB4)
Chain of SRPK1 (human) (Q96SB4 whole entry, looked up): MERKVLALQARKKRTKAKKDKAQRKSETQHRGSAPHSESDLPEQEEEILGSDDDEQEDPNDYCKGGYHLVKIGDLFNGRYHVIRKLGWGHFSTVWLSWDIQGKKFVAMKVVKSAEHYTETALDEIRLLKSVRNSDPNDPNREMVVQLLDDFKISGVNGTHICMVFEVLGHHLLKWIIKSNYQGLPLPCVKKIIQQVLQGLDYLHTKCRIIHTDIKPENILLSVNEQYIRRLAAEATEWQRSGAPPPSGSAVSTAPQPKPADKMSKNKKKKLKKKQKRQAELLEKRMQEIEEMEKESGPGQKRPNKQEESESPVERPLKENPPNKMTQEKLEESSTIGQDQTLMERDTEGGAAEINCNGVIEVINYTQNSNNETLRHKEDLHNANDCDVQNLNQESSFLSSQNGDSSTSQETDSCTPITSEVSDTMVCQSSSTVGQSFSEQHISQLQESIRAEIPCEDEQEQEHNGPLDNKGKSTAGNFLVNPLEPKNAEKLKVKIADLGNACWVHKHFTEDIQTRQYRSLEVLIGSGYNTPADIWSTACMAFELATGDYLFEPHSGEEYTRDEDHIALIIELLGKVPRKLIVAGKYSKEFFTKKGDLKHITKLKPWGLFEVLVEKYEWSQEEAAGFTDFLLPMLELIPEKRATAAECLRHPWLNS

[3] = test system: RPS6KB1 (human), P23443 [T412E]
DYRK3 (human) = DYRK3 (human) (UniProt O43781)
SYK (human) = SYK (human) (UniProt P43405)
EPHB1 (human) = EPHB1 (human) (UniProt P54762)
MARK1 (human) = MARK1 (human) (UniProt Q9P0L2)
INSR (human) = INSR (human) (UniProt P06213)
MYLK (human) = MYLK (human) (UniProt Q15746)
LCK (mouse) = conditions: accession and sequence are those of the human protein
[4] = test system: AKT1 (human), P31749 [S473D]
MAPK10 (human) = MAPK10 (human) (UniProt P53779)
FGFR1 (human) = FGFR1 (human) (UniProt P11362)
INSRR (human) = INSRR (human) (UniProt P14616)
Chain of INSRR (human) (P14616 whole entry, looked up): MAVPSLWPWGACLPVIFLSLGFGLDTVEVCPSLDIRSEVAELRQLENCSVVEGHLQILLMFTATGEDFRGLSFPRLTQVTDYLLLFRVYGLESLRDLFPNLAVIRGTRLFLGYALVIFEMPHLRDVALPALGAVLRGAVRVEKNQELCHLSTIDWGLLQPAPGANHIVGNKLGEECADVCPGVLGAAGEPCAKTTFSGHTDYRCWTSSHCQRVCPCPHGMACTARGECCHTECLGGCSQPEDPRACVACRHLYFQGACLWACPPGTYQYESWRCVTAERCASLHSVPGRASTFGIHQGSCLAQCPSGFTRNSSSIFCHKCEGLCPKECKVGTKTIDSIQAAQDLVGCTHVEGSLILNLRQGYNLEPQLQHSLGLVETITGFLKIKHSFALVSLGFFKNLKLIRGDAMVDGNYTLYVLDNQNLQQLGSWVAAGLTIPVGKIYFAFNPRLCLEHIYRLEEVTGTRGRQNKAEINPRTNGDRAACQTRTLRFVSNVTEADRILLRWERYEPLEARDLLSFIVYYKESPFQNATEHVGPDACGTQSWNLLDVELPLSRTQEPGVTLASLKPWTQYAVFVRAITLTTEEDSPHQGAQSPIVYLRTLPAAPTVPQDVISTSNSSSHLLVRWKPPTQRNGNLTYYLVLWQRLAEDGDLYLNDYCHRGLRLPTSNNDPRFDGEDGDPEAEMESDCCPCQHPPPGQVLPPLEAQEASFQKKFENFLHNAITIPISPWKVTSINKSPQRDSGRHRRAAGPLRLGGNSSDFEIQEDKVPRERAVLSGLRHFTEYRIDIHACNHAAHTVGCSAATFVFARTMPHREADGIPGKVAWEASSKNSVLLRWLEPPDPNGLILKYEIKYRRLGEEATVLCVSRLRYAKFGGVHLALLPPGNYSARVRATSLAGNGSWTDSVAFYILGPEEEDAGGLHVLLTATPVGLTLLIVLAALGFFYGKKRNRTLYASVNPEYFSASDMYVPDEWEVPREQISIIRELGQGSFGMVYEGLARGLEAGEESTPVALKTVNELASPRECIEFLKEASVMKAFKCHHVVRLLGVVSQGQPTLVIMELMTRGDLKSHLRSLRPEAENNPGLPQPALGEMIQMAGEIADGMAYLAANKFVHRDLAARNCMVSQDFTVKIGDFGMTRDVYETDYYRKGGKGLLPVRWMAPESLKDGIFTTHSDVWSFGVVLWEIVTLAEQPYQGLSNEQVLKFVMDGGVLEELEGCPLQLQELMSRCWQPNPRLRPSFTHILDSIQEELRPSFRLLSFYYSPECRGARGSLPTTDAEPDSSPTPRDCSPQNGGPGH

PIM3 (human) = PIM3 (human) (UniProt Q86V86)
[5] = target: STK11 CAB39 STRADA (human) (UniProt Q9Y376+Q7RTN6+Q15831)
MAP2K6 (human) = MAP2K6 (human) (UniProt P52564)
IRAK4 (human) = IRAK4 (human) (UniProt Q9NWZ3)
MKNK1 (human) = MKNK1 (human) (UniProt Q9BUB5)
TTK (human) = TTK (human) (UniProt P33981)
PIM2 (human) = PIM2 (human) (UniProt Q9P1W9)
MARK2 (human) = MARK2 (human) (UniProt Q7KZI7)

Chain of EPHA2 (human) (P29317 whole entry, looked up): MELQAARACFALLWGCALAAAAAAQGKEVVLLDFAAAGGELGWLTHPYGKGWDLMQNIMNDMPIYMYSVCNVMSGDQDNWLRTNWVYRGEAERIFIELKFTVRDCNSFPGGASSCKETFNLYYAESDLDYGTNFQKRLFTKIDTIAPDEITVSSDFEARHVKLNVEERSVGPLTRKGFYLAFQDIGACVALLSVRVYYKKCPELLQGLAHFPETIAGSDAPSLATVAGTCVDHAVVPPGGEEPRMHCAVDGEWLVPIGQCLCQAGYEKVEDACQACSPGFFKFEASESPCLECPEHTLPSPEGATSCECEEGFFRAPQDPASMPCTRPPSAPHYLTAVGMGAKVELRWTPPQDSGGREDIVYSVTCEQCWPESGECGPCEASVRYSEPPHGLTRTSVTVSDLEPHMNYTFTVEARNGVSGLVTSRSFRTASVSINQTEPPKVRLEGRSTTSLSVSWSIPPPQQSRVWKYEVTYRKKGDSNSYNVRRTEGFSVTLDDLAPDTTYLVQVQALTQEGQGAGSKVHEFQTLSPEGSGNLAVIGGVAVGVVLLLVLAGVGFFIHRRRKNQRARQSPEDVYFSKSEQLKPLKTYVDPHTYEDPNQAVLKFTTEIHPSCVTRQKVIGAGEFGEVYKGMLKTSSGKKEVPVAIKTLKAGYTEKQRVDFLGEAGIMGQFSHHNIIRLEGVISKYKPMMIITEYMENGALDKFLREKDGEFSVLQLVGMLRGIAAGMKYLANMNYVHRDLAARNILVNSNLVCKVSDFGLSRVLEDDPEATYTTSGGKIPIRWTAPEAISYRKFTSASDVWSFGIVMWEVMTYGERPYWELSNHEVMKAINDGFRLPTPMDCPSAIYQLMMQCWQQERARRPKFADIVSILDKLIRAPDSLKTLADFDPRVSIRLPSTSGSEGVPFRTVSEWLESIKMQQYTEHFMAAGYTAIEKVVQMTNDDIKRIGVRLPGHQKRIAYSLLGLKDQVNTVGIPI
Chain of MAPK11 (human) (Q15759 whole entry, looked up): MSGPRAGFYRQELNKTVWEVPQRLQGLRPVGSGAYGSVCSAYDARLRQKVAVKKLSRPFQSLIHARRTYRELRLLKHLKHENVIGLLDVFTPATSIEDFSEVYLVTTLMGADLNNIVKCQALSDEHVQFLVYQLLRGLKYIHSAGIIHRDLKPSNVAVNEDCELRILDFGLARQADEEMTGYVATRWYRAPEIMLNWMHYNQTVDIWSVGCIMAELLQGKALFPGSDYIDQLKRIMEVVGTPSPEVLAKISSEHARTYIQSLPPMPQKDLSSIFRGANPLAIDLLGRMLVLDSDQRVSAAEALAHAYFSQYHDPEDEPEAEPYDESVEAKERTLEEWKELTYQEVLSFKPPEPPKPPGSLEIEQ

O=C(Nc1ccccc1-c1cn2c(CN3CCNCC3)csc2n1)c1cnc2ccccc2n1
residual activity ([1]; compound 1.0 µM): 107%
residual activity ([1]; compound 10.0 µM): 108%
residual activity (EPHA2 (human); compound 0.1 µM): 97%
residual activity (EPHA2 (human); compound 1.0 µM): 99%
residual activity (EPHA2 (human); compound 10.0 µM): 84%
residual activity (MAPK13 (human); compound 0.1 µM): 91%
residual activity (MAPK13 (human); compound 1.0 µM): 78%
residual activity (MAPK13 (human); compound 10.0 µM): 85%
residual activity (TBK1 (human); compound 0.1 µM): 97%
residual activity (TBK1 (human); compound 1.0 µM): 91%
residual activity (TBK1 (human); compound 10.0 µM): 56%
residual activity (NEK6 (human); compound 0.1 µM): 84%
residual activity (NEK6 (human); compound 1.0 µM): 108%
residual activity (NEK6 (human); compound 10.0 µM): 83%
residual activity (MAPK11 (human); compound 0.1 µM): 102%
residual activity (MAPK11 (human); compound 1.0 µM): 89%
residual activity (MAPK11 (human); compound 10.0 µM): 90%
residual activity (NEK2 (human); compound 0.1 µM): 91%
residual activity (NEK2 (human); compound 1.0 µM): 95%
residual activity (NEK2 (human); compound 10.0 µM): 87%
residual activity (GSK3B (human); compound 1.0 µM): 78%
residual activity (GSK3B (human); compound 10.0 µM): 67%
residual activity (ROCK2 (rat); compound 0.1 µM): 100%
residual activity (ROCK2 (rat); compound 1.0 µM): 89%
residual activity (ROCK2 (rat); compound 10.0 µM): 79%
residual activity (CSNK2A1 (human); compound 0.1 µM): 90%
residual activity (CSNK2A1 (human); compound 1.0 µM): 102%
residual activity (CSNK2A1 (human); compound 10.0 µM): 77%
residual activity (PHKG1 (human); compound 0.1 µM): 96%
residual activity (PHKG1 (human); compound 1.0 µM): 53%
residual activity (PHKG1 (human); compound 10.0 µM): 14%
residual activity ([2]; compound 0.1 µM): 75%
residual activity ([2]; compound 1.0 µM): 70%
residual activity ([2]; compound 10.0 µM): 61%
residual activity (MAP3K9 (human); compound 1.0 µM): 92%
residual activity (MAP3K9 (human); compound 10.0 µM): 40%
residual activity (MAP2K1 (human); compound 0.1 µM): 91%
residual activity (MAP2K1 (human); compound 1.0 µM): 95%
residual activity (MAP2K1 (human); compound 10.0 µM): 87%
residual activity (PKN2 (human); compound 0.1 µM): 90%
residual activity (PKN2 (human); compound 1.0 µM): 103%
residual activity (PKN2 (human); compound 10.0 µM): 104%
residual activity (SRPK1 (human); compound 0.1 µM): 94%
residual activity (SRPK1 (human); compound 1.0 µM): 92%
residual activity (SRPK1 (human); compound 10.0 µM): 86%
residual activity ([3]; compound 0.1 µM): 86%
residual activity ([3]; compound 1.0 µM): 111%
residual activity ([3]; compound 10.0 µM): 61%
residual activity (DYRK3 (human); compound 0.1 µM): 82%
residual activity (DYRK3 (human); compound 1.0 µM): 91%
residual activity (DYRK3 (human); compound 10.0 µM): 64%
residual activity (SYK (human); compound 0.1 µM): 109%
residual activity (SYK (human); compound 1.0 µM): 93%
residual activity (SYK (human); compound 10.0 µM): 67%
residual activity (EPHB1 (human); compound 1.0 µM): 102%
residual activity (EPHB1 (human); compound 10.0 µM): 88%
residual activity (MARK1 (human); compound 1.0 µM): 85%
residual activity (MARK1 (human); compound 10.0 µM): 74%
residual activity (INSR (human); compound 0.1 µM): 127%
residual activity (INSR (human); compound 1.0 µM): 101%
residual activity (INSR (human); compound 10.0 µM): 100%
residual activity (MYLK (human); compound 0.1 µM): 82%
residual activity (MYLK (human); compound 1.0 µM): 27%
residual activity (MYLK (human); compound 10.0 µM): 10%
residual activity (LCK (mouse); compound 0.1 µM): 88%
residual activity (LCK (mouse); compound 1.0 µM): 106%
residual activity (LCK (mouse); compound 10.0 µM): 58%
residual activity ([4]; compound 0.1 µM): 86%
residual activity ([4]; compound 1.0 µM): 91%
residual activity ([4]; compound 10.0 µM): 88%
residual activity (MAPK10 (human); compound 1.0 µM): 105%
residual activity (MAPK10 (human); compound 10.0 µM): 89%
residual activity (FGFR1 (human); compound 0.1 µM): 103%
residual activity (FGFR1 (human); compound 1.0 µM): 91%
residual activity (FGFR1 (human); compound 10.0 µM): 68%
residual activity (INSRR (human); compound 0.1 µM): 73%
residual activity (INSRR (human); compound 1.0 µM): 77%
residual activity (INSRR (human); compound 10.0 µM): 53%
residual activity (PIM3 (human); compound 0.1 µM): 95%
residual activity (PIM3 (human); compound 1.0 µM): 55%
residual activity (PIM3 (human); compound 10.0 µM): 24%
residual activity ([5]; compound 1.0 µM): 93%
residual activity ([5]; compound 10.0 µM): 97%
residual activity (MAP2K6 (human); compound 1.0 µM): 97%
residual activity (MAP2K6 (human); compound 10.0 µM): 98%
residual activity (IRAK4 (human); compound 1.0 µM): 63%
residual activity (IRAK4 (human); compound 10.0 µM): 24%
residual activity (MKNK1 (human); compound 0.1 µM): 92%
residual activity (MKNK1 (human); compound 1.0 µM): 100%
residual activity (MKNK1 (human); compound 10.0 µM): 97%
residual activity (TTK (human); compound 1.0 µM): 85%
residual activity (TTK (human); compound 10.0 µM): 68%
residual activity (PIM2 (human); compound 0.1 µM): 90%
residual activity (PIM2 (human); compound 1.0 µM): 95%
residual activity (PIM2 (human); compound 10.0 µM): 78%
residual activity (MARK2 (human); compound 1.0 µM): 106%
residual activity (MARK2 (human); compound 10.0 µM): 83%
